Test results published in publication PMC4747952, “Development of TASP0410457 (TASP457), a novel dihydroquinolinone derivative as a PET radioligand for central histamine H3 receptors” (EJNMMI Research, 2016).

Columns and labels:
rat H3R = target: T1, rat H3R (Rattus norvegicus, UniProt Q9QYN8); test: In vitro binding to H3Rs, rat cerebral cortex membranes, [^3H]N-α-methylhistamine; details: 1 nM [^3H]N-α-methylhistamine, geometric mean, n = 3, read-out: Affinity for H3Rs Rat, IC50
T1 construct: Rat cerebral cortex and monkey frontal cortex were dissected; from tissue; host or cells: rat cerebral cortex membranes
Method: Rat cerebral cortex and monkey frontal cortex were dissected, homogenized with 50 mM Tris buffer (pH 7.4) containing 5 mM EDTA and Protease Inhibitor Cocktail Tablets (Roche Diagnostics, Indianapolis, IN) and centrifuged at 48,000×g for 15 min at 4 °C. The pellets were then suspended in binding buffer (50 mM Tris containing 5 mM EDTA, pH 7.4) and stored at −80 °C as membrane preparations.
The membrane preparations were thawed and incubated in the binding buffer containing 0.1 % bovine serum albumin, 1 nM [^3H]N-α-methylhistamine (PerkinElmer, Waltham, MA) with various concentrations of a dihydroquinolinone derivative (i.e., test compound) at 25 °C for 1 h. The reaction was terminated by rapid filtration through 96-well GF/C filter plates (PerkinElmer) presoaked with 0.5 % polyethyleneimine (Wako, Osaka, Japan). After washes with ice-cold binding buffer, the plates were dried and filled with Microscint-o (PerkinElmer). The radioactivity retained on the filters was counted using a TopCount NXT (PerkinElmer). Total and nonspecific radioligand binding was determined by reaction without and with 10 μM thioperamide and clobenpropit, respectively. The specific radioligand binding was then calculated by subtracting the nonspecific binding from the total binding. The IC50 value for inhibition of the radioligand binding by the test compound was determined using a nonlinear fit of the concentration-response curve for each test compound using SAS 9.2 (SAS Institute Inc., Cary, NC). Data were expressed as the geometric means of IC50 values from three independent experiments run in duplicate.

[1] = Ex vivo pharmacokinetic assessment in the rat brain using LC-MS/MS; details: 10 μg/kg intravenous, n = 3
Method: The rats were decapitated at 5, 15, 30, 60, and 120 min after intravenous administration of TASP0390136, TASP0390174, TASP0410426, TASP0410427, TASP0410457, or TASP0434988 at a dose of 10 μg/kg. The cerebellum and forebrain, including the medial prefrontal and cingulate cortices and anterior striatum, were dissected and homogenized with four volumes of distilled water. The homogenates were protein-precipitated with methanol/acetonitrile (1:9) and were centrifuged at 3974×g for 10 min at 4 °C. The resultant supernatants were injected into an HPLC (Shimadzu-20AD, Shimadzu, Kyoto, Japan) and a tandem mass spectrometer (API4000, AB SCIEX, Framingham, MA) using a Shim-pak XR-ODS column (3.0 × 30 mm, Shimadzu) at 50 °C. TASP0410457 was eluted with a mobile phase consisting of 10 mM of ammonium acetate/acetonitrile with a linear gradient at a flow rate of 1.3 mL/min, and ammonium formate instead of ammonium acetate was used for eluting the other five compounds. […] The eluted TASP0390136, TASP0390174, TASP0410426, TASP0410427, TASP0410457, and TASP0434988 were ionized using an electrospray interface and were detected using reaction monitoring of the transitions of m/z 395 to 91, 395 to 98, 413 to 98, 425 to 98, 408 to 138, and 407 to 138, respectively. A dihydroquinolinone compound (6-[(1-cyclobutylpiperidin-4-yl)oxy]-1-(3,5-difluorophenyl)-3,4-dihydroquinolin-2(1H)-one) was used as an internal standard for all assays. The lower qualification limit for TASP0410457 was 0.05 ng/g tissue, and the limit for the other five compounds was 0.15 ng/g tissue. Data were expressed as standardized uptake values (SUVs) calculated as follows: SUV=tissueconcentrationg/g×bodyweightg/injecteddoseg

H3R = target: T2, H3R (Rattus norvegicus, UniProt Q9QYN8); test: PET imaging of rat brains; type: in vivo; details: for cerebellar SUV at 15 min after radioligand injection: mean ± S.D.
T2 construct: from tissue; host or cells: brain of living Sprague-Dawley rats
Method: Six-week-old male Sprague-Dawley rats were purchased from Japan SLC (Shizuoka, Japan). PET scans were performed using a microPET Focus 220 small-animal scanner (Siemens Medical Solutions USA, Knoxville, TN). The rats were anesthetized with 1.5–2 % isoflurane during the imaging session, while their heart rate and blood oxygen saturation were monitored by pulse oximeter (CANL-425SVA; Med Associates, St. Albans, VT). Body temperature was kept at 37 °C with a heating pad (BWT-100; Bio Research Center, Aichi, Japan). Following the transmission scans for attenuation correction using a ^68Ge-^68Ga point source, emission scans were performed for 90 min in 3D list-mode with an energy window of 350–750 keV, immediately after the intravenous injection of each radioligand. Mean ± S.D. of the injected radioactivity of [^11C]TASP0410457, [^11C]TASP0434988, and [^11C]TASP0390136 was 119 ± 26 MBq, 132 ± 34 MBq, and 124 ± 17 MBq, respectively (n = 3–5). Mean ± S.D. of the mass doses of [^11C]TASP0410457, [^11C]TASP0434988, and [^11C]TASP0390136 was 2.4 ± 1.2 μg/kg, 1.9 ± 0.4 μg/kg, and 4.2 ± 1.6 μg/kg, respectively (n = 3–5).
To assess the specificity of radioligand binding, thioperamide was injected intravenously at a dose of 10 mg/kg at 30 s before the injection of each radioligand.
All list-mode data were sorted into 3D sinograms, which were then Fourier rebinned into 2D sinograms (frames: 1 min × 4, 2 min × 8 and 5 min × 14). Images were reconstructed using 2D-filtered back-projection with a 0.5-mm Hanning filter.
PET image and magnetic resonance imaging (MRI) template were co-registered using PMOD software (PMOD version 3.206; Zurich, Switzerland) according to the following procedure as in our previous works: Outline of the whole brain and positions of eyes in PET images at an early phase of the scan were initially matched to those in MRI images, and then further translations and rotations of PET images were manually performed for fine alignments. Finally, parameters for the co-registration were applied to the entire dynamic PET data. Regions of interest (ROIs) were placed on the striatum, hippocampus, and cerebellum using PMOD software with reference to the MRI template as described elsewhere. The tissue time-activity curves (TACs) for these ROIs were generated by calculating the SUV for each time frame as follows: SUV=radioactivityBq/g×bodyweightg/injectedradiotracerdoseBq
The binding potentials relative to the non-displaceable uptake (BPND) in the striatum and hippocampus were estimated using the simplified reference tissue model (SRTM) with PMOD software using the cerebellum as a reference region, as the rat cerebellum is devoid of H3R [26].

[2] = Radiochemical stability in the final formulation; type: physicochemical; details: at 40 min after the end of radiosynthesis
Method: [^11C]TASP0390136, [^11C]TASP0410457, and [^11C]TASP0434988 were synthesized as shown in Fig. 1a–c (detailed procedures are described in Additional file 1: Supplemental methods) using a homemade automated synthesis system. The radiochemical purities and specific activities of the radioligands, which were analyzed as described in Additional file 1: Supplemental Methods, along with their radiochemical yields and average synthesis times, are summarized in Table 1. Analytical HPLC chromatogram of each radioligand is shown in Additional file 2-4: Figures S1-S3. The radiochemical stabilities of [^11C]TASP0410457 and [^11C]TASP0434988 in the final formulation were >99 % at 1 h and 40 min, respectively, after the end of radiosynthesis.

central H3Rs = test: Receptor occupancy assay, [^11C]TASP0410457-PET, Lassen's plot; type: in vivo, monkey
Method: Occupancy of central H3Rs by ciproxifan, a selective antagonist/inverse agonist, was quantified by [^11C]TASP0410457-PET scans of an anesthetized monkey with arterial blood sampling. […] Receptor occupancy of ciproxifan was determined using Lassen’s plot without any reference regions using the following equation: VT^Baseline−VT^Ciproxifan=OccVT^Baseline−VND where VT^Baseline and VT^Ciproxifan are the regional VT values at baseline and in the ciproxifan challenge, respectively, VND is the non-displaceable distribution volume, and Occ is the occupancy.

[3] = thioperamide predosing 10 mg/kg
[4] = SRTM, cerebellum as reference region

T1 sequence (Q9QYN8 whole entry): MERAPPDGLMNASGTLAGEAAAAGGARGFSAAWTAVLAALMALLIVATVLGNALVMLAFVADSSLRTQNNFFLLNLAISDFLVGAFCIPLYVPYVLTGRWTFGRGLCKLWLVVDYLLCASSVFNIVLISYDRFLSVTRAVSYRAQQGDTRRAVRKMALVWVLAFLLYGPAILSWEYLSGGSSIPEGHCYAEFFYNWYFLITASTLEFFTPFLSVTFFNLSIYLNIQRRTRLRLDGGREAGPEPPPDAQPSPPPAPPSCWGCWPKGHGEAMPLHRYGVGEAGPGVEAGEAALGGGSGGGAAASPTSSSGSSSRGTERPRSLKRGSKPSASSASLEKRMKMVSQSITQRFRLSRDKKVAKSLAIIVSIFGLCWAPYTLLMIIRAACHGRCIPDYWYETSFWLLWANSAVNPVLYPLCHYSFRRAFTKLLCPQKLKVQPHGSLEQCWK
T2 sequence (Q9QYN8 whole entry): as above

Row | Compound | IC50 (rat H3R) [nM] | Mean peak concentration in the forebrain expressed as SUV [1] [SUV] | cerebellar SUV at 15 min after radioligand injection (H3R; baseline) | cerebellar SUV at 15 min after radioligand injection (H3R; [3]) | other results
1 | COc1cccc(N2C(=O)CCc3cc(OCCCN4CCC[C@H]4C)ccc32)c1 [TASP0390174, 1-(3-methoxyphenyl)-6-{3-[(2R)-2-methylpyrrolidin-1-yl]propoxy}-3,4-dihydroquinolin-2(1H)-one] | < 3 | 0.28 |  |  | 
2 | COc1cc(F)cc(N2C(=O)CCc3cc(OCCCN4CCC[C@H]4C)ccc32)c1 [TASP0410426, 1-(3-fluoro-5-methoxyphenyl)-6-{3-[(2R)-2-methylpyrrolidin-1-yl]propoxy}-3,4-dihydroquinolin-2(1H)-one] | < 3 | 0.30 |  |  | 
3 | O=C(c1ccc(OCCCc2cnc[nH]2)cc1)C1CC1 [ciproxifan, reference compound] |  |  |  |  | receptor occupancy (central H3Rs; 3 mg/kg intravenously, 10 min before [^11C]TASP0410457, anesthetized monkey, Lassen's plot): ~ 75%; adverse effects preventing completion of PET imaging (central H3Rs; 10 mg/kg, monkey, anesthetized with isoflurane): profound effects on heart rates and body motions

More lines, main results first:

Row | IC50 (rat H3R) [nM] | Mean peak concentration in the forebrain expressed as SUV [1] [SUV] | cerebellar SUV at 15 min after radioligand injection (H3R; baseline) | cerebellar SUV at 15 min after radioligand injection (H3R; [3]) | Compound | other results
4 | < 3 | 0.10 |  |  | COc1ccc(N2C(=O)CCc3cc(OCCCN4CCC[C@H]4C)ccc32)c(OC)c1 [TASP0410427, 1-(2,4-dimethoxyphenyl)-6-{3-[(2R)-2-methylpyrrolidin-1-yl]propoxy}-3,4-dihydroquinolin-2(1H)-one] | 
5 |  |  | 0.33 ± 0.01 | 0.30 ± 0.03 | C[C@@H]1CCCN1CCCOc1ccc2c(c1)CCC(=O)N2c1ccc(O[11CH3])cc1 [[^11C]TASP0390136] | 
6 |  |  | 0.64 ± 0.04 | 0.59 ± 0.02 | [11CH3]Oc1ccc(N2C(=O)CCc3cc(OC4CCN(C5CCC5)CC4)ccc32)cc1 [[^11C]TASP0434988] | striatal and hippocampal peak SUVs lower than those for [^11C]TASP0410457 (H3R): 20–25%; BPND, Hippocampus (H3R; [4]): 0.36 ± 0.11; BPND, Striatum (H3R; [4]): 0.92 ± 0.21; time for specific binding to reach a pseudo-equilibrium state (H3R; target-to-reference ratios, after intravenous injection): ≤ 15 min; radiochemical stability in the final formulation [2]: > 99%
